Results from patent publication US8435549B2, “Halogen alkoxy spirocyclic tetramic and tetronic acid derivatives” (Bayer Cropscience AG, priority 2007, dated 2013).

Assay: Determination of the log P values (LC/MS, HCOOH method)
Format: physicochemical
Conditions: for log P: HPLC reversed-phase C18, HCOOH method; for chromatographic logP: reversed-phase C18 HPLC column, acidic range (pH 3.4)
Description: Determination of the Log P Values (LC/MS, HCOOH Method):
The log P values given in the tables were determined in accordance with EEC Directive 79/831 Annex V.A8 by HPLC (High Performance Liquid Chromatography) using a reversed-phase column (C 18). Temperature: 55° C.
Mobile phases for determination in the acidic range (pH 3.4):
Mobile phase A: acetonitrile+1 ml formic acid/liter. Mobile phase B: water+0.9 ml formic acid/liter. Gradient: from 10% mobile phase A/90% mobile phase B to 95% mobile phase A/5% mobile phase B over 4.25 min. Calibration was carried out using unbranched alkan-2-ones (having 3 to 16 carbon atoms) with known log P values (determination of the log P values by the retention times using linear interpolation between two successive alkanones). The lambda max values were determined in the maxima of the chromatographic signals using the UV spectra from 200 nm to 400 nm.

[1] = α isomer of the α + β mixture, 55° C.
[2] = β isomer of the α + β mixture, 55° C.
[3] = compounds of formula (I-2-b), single isomer as labelled
[4] = single isomer isolated by preparative HPLC (formula I-2-a)

Question: For Cc1ccc(C)c(C2=C(O)C3(CCC(OCC(F)(F)F)CC3)OC2=O)c1 (mixture of isomers) [Example I-2-a-2], which “log P” value [1] is on record?
Answer: Its value is “α 3.10”.

Question: And the “log P” value [2]?
Answer: Its value is “β 2.95”.

Question: What does the source list for Cc1cc(C)c(C2=C(O)C3(CCC(OCC(F)(F)F)CC3)OC2=O)c(C)c1 (mixture of isomers) [Example I-2-a-3]?
Answer: log P [1]: α 3.31; log P [2]: β 3.18

Question: What does the source list for Cc1cc(C)c(C2=C(O)C3(CCC(OCC(F)(F)F)CC3)OC2=O)cc1C (mixture of isomers) [Example I-2-a-4]?
Answer: log P [1]: α 3.34; log P [2]: β 3.20

Question: With CCc1cc(C)cc(C)c1C1=C(O)C2(CCC(OCC(F)(F)F)CC2)OC1=O (mixture of isomers) [Example I-2-a-5] as the molecule, how does the “log P” value [1] read?
Answer: The value was “α 3.54”.

Question: And the “log P” value [2]?
Answer: Its value is “β 3.41”.

Question: Which results are given for Cc1ccc(-c2ccc(Cl)cc2)c(C)c1C1=C(O)C2(CCC(OCC(F)(F)F)CC2)OC1=O (mixture of isomers) [Example I-2-a-6]?
Answer: log P [1]: α 4.29; log P [2]: β 4.13

Question: For Cc1cc(Cl)cc(C)c1C1=C(O)C2(CCC(OCC(F)(F)F)CC2)OC1=O (mixture of isomers) [Example I-2-a-8], which “log P” value [1] is on record?
Answer: The value was 3.39.

Question: What about the “log P” value [2] of the same molecule?
Answer: Its value is 3.25.

Question: What does the source list for COc1cc(C)cc(C)c1C1=C(O)C2(CCC(OCC(F)(F)F)CC2)OC1=O (mixture of isomers) [Example I-2-a-11]?
Answer: log P [1]: α 3.07; log P [2]: β 2.94

Question: For CCc1cc(-c2ccc(Cl)cc2)cc(C)c1C1=C(O)C2(CCC(OCC(F)(F)F)CC2)OC1=O (mixture of isomers) [Example I-2-a-12], which “log P” value [1] is on record?
Answer: The value was “α 4.51”.

Question: And the “log P” value [2]?
Answer: Its value is “β 4.36”.

Question: Which “log P” value [3] does the source give for Cc1ccc(C)c(C2=C(OC(=O)C(C)C)C3(CCC(OCC(F)(F)F)CC3)OC2=O)c1 (single isomer, unassigned) [Example I-2-b-5] here?
Answer: The value was 4.88.

Question: With Cc1ccc(C)c(C2=C(OC(=O)C(C)C)C3(CCC(OCC(F)(F)F)CC3)OC2=O)c1 (single isomer, unassigned) [Example I-2-b-6] as the molecule, how does the “log P” value [3] read?
Answer: Its value is 4.62.

Question: With Cc1cc(Cl)cc(C)c1C1=C(OC(=O)C(C)C)C2(CCC(OCC(F)(F)F)CC2)OC1=O (single isomer, unassigned) [Example I-2-b-15] as the molecule, how does the “log P” value [3] read?
Answer: The value was 5.25.

Question: With Cc1cc(Cl)cc(C)c1C1=C(OC(=O)C(C)C)C2(CCC(OCC(F)(F)F)CC2)OC1=O (single isomer, unassigned) [Example I-2-b-16] as the molecule, how does the “log P” value [3] read?
Answer: Its value is 4.97.

Question: With CCc1cc(-c2ccc(Cl)cc2)cc(C)c1C1=C(OC(=O)C(C)C)C2(CCC(OCC(F)(F)F)CC2)OC1=O (single isomer, unassigned) [I-2-b-17] as the molecule, how does the “log P” value [3] read?
Answer: Its value is 6.33.

Question: Which “log P” value [3] does the source give for CCc1cc(-c2ccc(Cl)cc2)cc(C)c1C1=C(OC(=O)C(C)C)C2(CCC(OCC(F)(F)F)CC2)OC1=O (single isomer, unassigned) [I-2-b-18] here?
Answer: Its value is 6.02.

Question: Which “log P” value [3] does the source give for COc1cc(C)cc(C)c1C1=C(OC(=O)C(C)C)C2(CCC(OCC(F)(F)F)CC2)OC1=O (single isomer, unassigned) [I-2-b-19] here?
Answer: Its value is 4.72.

Question: Which “log P” value [3] does the source give for COc1cc(C)cc(C)c1C1=C(OC(=O)C(C)C)C2(CCC(OCC(F)(F)F)CC2)OC1=O (single isomer, unassigned) [I-2-b-20] here?
Answer: The value was 4.48.

Question: Which chromatographic logP (pH 3.4, α isomer of the isomer mixture, HPLC) does the source give for CCc1cc(C)cc(CC)c1C1=C(O)C2(CCC(OCC(F)(F)F)CC2)OC1=O (centres unmarked) [Example I-2-a-1] here?
Answer: Its chromatographic logP is 3.78.

Question: What about the chromatographic logP (pH 3.4, β isomer of the isomer mixture, HPLC) of the same molecule?
Answer: Its chromatographic logP is 3.64.

Question: Which “log P” value [4] does the source give for Cc1cc(C)c(C2=C(O)C3(CCC(OCC(F)(F)F)CC3)OC2=O)c(C)c1 (centres unmarked) [Example I-2-a-9] here?
Answer: The value was 3.29.

Question: With Cc1cc(C)c(C2=C(O)C3(CCC(OCC(F)(F)F)CC3)OC2=O)c(C)c1 (centres unmarked) [Example I-2-a-10] as the molecule, how does the “log P” value [4] read?
Answer: Its value is 3.16.

Question: For CCc1cc(C)cc(CC)c1C1=C(OC(=O)C(C)C)[C@]2(CC[C@H](OCC(F)(F)F)CC2)OC1=O [Example I-2-b-1], which chromatographic logP (pH 3.4, HPLC) is on record?
Answer: Its chromatographic logP is 5.69.
